From ChEMBL document CHEMBL3132769, “Fragment growing to retain or alter the selectivity of anchored kinase hinge-binding fragments” (Medchemcomm, 2014) come the findings set out here.

The inhibition is the change of the read-out against control, counted positive when it falls.

Assay [1] has as its target T1, cGMP-dependent protein kinase 1 (Homo sapiens) (UniProt Q13976).
T1 sequence (whole entry): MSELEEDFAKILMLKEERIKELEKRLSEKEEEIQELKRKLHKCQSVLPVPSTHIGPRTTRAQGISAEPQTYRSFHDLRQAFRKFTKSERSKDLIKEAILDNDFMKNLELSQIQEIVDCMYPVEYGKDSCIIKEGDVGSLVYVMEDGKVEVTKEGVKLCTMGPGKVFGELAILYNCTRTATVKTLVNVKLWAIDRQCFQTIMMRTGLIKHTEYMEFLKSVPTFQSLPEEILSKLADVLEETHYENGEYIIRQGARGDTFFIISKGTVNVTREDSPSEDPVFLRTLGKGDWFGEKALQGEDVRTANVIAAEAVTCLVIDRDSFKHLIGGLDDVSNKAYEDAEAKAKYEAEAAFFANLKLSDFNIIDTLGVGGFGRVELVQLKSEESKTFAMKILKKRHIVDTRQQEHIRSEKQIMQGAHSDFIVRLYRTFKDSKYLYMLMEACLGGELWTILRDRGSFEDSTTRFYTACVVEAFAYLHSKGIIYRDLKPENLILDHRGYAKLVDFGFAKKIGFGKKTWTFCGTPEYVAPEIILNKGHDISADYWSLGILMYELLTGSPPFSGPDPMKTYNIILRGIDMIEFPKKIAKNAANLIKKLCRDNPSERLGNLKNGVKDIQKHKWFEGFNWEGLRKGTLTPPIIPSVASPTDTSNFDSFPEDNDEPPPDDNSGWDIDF
Nature of the assay: Inhibition of human full length PKG-1beta expressed in baculovirus assessed as substrate phosphorylation using fluorescence-labelled peptides as substrate at 2 uM after 90 mins by microfluidic peptide phosphorylation assay.

Assay [2] concerns the target Hepatocyte growth factor receptor (Homo sapiens) (UniProt P08581). Nature of the assay: Inhibition of human MET cytoplasmic domain expressed in baculovirus assessed as substrate phosphorylation using fluorescence-labelled peptides as substrate at 2 uM after 90 mins by microfluidic peptide phosphorylation assay.
Assay [3] has as its target T2, Interleukin-1 receptor-associated kinase 4 (Homo sapiens) (UniProt Q9NWZ3).
T2 sequence (whole entry): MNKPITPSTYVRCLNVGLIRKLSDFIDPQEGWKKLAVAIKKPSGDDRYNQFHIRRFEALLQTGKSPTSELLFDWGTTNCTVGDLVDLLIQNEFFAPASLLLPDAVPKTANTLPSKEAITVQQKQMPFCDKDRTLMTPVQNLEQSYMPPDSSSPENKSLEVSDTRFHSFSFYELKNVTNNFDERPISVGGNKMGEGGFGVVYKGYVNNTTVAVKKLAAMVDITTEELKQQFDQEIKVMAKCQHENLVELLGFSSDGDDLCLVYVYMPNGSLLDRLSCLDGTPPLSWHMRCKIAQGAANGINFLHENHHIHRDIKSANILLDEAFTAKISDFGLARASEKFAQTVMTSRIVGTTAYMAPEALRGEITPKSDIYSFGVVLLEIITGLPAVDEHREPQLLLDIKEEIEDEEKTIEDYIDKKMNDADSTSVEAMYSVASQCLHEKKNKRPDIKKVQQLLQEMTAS
Nature of the assay: Inhibition of human IRAK4 catalytic domain expressed in baculovirus assessed as substrate phosphorylation using fluorescence-labelled peptides as substrate at 0.1 uM after 90 mins by microfluidic peptide phosphorylation assay.

For assay [4], the target named is Serine/threonine-protein kinase MARK1 (Homo sapiens) (UniProt Q9P0L2). The assay can be described thus: Inhibition of human full length MARK1 expressed in baculovirus assessed as substrate phosphorylation using fluorescence-labelled peptides as substrate at 0.2 uM after 90 mins by microfluidic peptide phosphorylation assay.
Assay [5] has as its target Tyrosine-protein kinase BTK (Homo sapiens) (UniProt Q06187). Nature of the assay: Inhibition of human full length BTK expressed in baculovirus assessed as substrate phosphorylation using fluorescence-labelled peptides as substrate at 0.06 uM after 90 mins by microfluidic peptide phosphorylation assay.
In assay [6] the target is Fibroblast growth factor receptor 3 (Homo sapiens) (UniProt P22607). Nature of the assay: Inhibition of human FGFR3 catalytic domain expressed in baculovirus assessed as substrate phosphorylation using fluorescence-labelled peptides as substrate at 9 uM after 90 mins by microfluidic peptide phosphorylation assay.
For assay [7], the target named is Tyrosine-protein kinase BTK (Homo sapiens) (UniProt Q06187). The assay can be described thus: Inhibition of human full length BTK expressed in baculovirus assessed as substrate phosphorylation using fluorescence-labelled peptides as substrate at 9 uM after 90 mins by microfluidic peptide phosphorylation assay.
The target in assay [8] is Hepatocyte growth factor receptor (Homo sapiens) (UniProt P08581). Nature of the assay: Inhibition of human MET cytoplasmic domain expressed in baculovirus assessed as substrate phosphorylation using fluorescence-labelled peptides as substrate at 95 uM after 90 mins by microfluidic peptide phosphorylation assay.
Assay [9] concerns the target T3, Serine/threonine-protein kinase BRSK2 (Homo sapiens) (UniProt Q8IWQ3).
T3 sequence (whole entry): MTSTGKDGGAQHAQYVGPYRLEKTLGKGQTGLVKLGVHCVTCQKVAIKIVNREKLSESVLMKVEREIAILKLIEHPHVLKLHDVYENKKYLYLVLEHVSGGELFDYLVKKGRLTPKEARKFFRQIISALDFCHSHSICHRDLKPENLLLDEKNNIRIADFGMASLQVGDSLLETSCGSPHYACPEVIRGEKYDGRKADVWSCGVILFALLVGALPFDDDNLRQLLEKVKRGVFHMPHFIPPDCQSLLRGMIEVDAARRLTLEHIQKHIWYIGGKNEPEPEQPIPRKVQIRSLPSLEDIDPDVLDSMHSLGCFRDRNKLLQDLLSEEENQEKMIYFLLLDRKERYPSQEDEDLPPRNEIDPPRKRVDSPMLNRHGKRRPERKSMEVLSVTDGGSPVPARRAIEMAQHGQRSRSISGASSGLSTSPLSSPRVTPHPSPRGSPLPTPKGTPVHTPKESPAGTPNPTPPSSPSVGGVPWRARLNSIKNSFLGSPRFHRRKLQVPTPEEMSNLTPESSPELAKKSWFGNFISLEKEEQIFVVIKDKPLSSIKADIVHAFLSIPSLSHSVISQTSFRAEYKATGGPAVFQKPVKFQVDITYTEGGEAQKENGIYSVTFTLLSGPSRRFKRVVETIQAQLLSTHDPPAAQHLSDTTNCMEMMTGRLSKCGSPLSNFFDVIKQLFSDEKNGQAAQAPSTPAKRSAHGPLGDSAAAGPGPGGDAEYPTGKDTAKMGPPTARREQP
Nature of the assay: Inhibition of human truncated BRSK2 expressed in baculovirus assessed as substrate phosphorylation using fluorescence-labelled peptides as substrate at 70 uM after 90 mins by microfluidic peptide phosphorylation assay.

Assay [10] has as its target Tyrosine-protein kinase HCK (Homo sapiens) (UniProt P08631). The assay can be described thus: Inhibition of human HCK catalytic domain expressed in baculovirus assessed as substrate phosphorylation using fluorescence-labelled peptides as substrate at 70 uM after 90 mins by microfluidic peptide phosphorylation assay.
Assay [11] addresses RAC-alpha serine/threonine-protein kinase (Homo sapiens) (UniProt P31749). Nature of the assay: Inhibition of human AKT1 catalytic domain expressed in baculovirus assessed as substrate phosphorylation using fluorescence-labelled peptides as substrate at 70 uM after 90 mins by microfluidic peptide phosphorylation assay.
Assay [12] addresses Protein kinase C alpha type (Homo sapiens) (UniProt P17252). Nature of the assay: Inhibition of human truncated PKC alpha expressed in baculovirus assessed as substrate phosphorylation using fluorescence-labelled peptides as substrate at 420 uM after 90 mins by microfluidic peptide phosphorylation assay.

Tyrosine-protein kinase BTK (Homo sapiens), sequence (Q06187 whole entry, the tested form may be a part): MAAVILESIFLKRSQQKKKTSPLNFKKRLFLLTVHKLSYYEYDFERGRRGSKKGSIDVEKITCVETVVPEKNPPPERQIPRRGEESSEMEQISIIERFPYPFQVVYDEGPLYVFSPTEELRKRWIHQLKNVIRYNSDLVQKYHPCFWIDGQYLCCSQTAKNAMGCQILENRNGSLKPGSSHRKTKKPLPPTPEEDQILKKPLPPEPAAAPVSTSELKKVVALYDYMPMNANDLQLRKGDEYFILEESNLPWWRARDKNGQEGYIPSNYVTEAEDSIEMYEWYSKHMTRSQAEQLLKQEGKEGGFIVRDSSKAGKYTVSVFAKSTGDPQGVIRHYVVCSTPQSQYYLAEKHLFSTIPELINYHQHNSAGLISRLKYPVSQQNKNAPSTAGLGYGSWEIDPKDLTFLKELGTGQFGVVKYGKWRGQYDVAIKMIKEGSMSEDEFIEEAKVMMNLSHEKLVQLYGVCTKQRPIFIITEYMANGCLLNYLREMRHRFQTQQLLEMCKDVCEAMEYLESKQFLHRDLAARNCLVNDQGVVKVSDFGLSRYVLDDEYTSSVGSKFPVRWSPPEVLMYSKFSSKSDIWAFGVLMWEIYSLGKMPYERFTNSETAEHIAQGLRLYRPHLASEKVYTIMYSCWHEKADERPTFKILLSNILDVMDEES
Hepatocyte growth factor receptor (Homo sapiens), sequence (P08581 whole entry, the tested form may be a part): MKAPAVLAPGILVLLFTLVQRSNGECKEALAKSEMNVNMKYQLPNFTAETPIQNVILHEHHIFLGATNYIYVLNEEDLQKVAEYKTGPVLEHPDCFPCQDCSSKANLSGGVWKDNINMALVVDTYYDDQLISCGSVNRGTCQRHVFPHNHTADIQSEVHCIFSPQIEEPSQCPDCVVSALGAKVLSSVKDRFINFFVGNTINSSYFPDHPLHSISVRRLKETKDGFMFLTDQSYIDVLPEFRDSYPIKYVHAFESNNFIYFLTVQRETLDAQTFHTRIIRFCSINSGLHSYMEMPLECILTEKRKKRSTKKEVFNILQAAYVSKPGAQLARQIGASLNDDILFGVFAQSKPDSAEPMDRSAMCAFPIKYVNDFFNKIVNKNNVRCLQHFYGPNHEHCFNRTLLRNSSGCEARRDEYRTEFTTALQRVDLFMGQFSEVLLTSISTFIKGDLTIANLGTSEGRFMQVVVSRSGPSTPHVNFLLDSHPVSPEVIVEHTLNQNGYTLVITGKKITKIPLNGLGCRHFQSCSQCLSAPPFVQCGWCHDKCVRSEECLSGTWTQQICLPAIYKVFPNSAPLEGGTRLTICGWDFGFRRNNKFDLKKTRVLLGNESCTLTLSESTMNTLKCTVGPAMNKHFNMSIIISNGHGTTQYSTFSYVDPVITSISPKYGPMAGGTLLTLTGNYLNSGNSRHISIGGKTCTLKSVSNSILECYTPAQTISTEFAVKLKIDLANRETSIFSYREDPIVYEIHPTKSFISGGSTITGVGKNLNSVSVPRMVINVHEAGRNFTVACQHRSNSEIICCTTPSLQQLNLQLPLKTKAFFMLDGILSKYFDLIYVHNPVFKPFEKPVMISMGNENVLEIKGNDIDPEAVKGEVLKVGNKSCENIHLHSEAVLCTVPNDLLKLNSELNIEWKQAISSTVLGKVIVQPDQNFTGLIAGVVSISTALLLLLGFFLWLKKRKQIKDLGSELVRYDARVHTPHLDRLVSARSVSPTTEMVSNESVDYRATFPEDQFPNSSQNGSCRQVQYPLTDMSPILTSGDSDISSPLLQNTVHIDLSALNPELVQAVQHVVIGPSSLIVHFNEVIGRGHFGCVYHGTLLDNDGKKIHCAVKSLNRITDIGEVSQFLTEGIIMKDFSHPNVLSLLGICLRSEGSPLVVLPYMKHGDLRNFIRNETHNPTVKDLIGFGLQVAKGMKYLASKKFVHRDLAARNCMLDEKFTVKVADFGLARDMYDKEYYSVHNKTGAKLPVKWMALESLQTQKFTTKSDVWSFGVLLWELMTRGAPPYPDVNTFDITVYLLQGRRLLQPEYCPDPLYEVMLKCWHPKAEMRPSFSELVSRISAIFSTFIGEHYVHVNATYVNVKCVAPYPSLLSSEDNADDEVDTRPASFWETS
Fibroblast growth factor receptor 3 (Homo sapiens), sequence (P22607 23-806 limits assumed): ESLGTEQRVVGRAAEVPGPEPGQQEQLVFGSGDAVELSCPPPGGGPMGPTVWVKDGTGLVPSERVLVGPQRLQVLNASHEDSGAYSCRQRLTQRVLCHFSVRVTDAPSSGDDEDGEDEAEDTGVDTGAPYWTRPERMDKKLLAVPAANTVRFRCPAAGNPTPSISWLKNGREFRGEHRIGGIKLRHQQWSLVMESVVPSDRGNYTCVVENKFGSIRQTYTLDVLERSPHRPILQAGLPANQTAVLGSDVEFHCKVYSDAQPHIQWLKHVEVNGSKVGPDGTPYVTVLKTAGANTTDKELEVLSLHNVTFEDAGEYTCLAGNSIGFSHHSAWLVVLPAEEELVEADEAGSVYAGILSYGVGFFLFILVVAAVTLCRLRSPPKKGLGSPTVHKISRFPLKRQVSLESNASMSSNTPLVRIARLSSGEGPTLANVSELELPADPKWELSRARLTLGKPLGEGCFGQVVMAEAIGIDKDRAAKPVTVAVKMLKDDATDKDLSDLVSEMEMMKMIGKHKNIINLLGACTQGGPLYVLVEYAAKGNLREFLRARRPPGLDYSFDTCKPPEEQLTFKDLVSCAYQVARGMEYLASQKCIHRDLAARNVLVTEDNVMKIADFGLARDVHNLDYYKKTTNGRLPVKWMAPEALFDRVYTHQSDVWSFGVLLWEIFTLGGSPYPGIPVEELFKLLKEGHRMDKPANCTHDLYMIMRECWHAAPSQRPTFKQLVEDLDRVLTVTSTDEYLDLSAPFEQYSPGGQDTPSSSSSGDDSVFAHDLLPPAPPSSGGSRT
Serine/threonine-protein kinase MARK1 (Homo sapiens), sequence (Q9P0L2 whole entry, looked up): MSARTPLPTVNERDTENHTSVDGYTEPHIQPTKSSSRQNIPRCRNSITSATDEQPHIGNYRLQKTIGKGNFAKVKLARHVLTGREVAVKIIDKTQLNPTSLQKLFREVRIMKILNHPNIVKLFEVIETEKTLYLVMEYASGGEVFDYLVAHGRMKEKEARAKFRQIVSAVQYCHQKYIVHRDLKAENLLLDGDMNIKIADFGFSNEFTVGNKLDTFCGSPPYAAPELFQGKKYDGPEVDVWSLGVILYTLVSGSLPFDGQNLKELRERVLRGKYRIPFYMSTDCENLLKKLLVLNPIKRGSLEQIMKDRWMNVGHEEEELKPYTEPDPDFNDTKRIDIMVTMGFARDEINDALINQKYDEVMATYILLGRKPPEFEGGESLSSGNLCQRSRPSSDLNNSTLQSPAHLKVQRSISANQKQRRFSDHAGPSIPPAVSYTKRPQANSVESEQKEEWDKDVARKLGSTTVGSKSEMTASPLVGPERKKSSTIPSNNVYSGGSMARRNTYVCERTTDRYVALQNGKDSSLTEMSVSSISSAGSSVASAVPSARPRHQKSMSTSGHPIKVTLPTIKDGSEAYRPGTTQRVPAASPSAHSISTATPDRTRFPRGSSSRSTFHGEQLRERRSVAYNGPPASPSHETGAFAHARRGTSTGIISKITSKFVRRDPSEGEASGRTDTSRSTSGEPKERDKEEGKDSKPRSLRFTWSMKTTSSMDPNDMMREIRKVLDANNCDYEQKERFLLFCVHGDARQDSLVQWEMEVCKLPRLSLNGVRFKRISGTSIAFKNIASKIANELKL
RAC-alpha serine/threonine-protein kinase (Homo sapiens), sequence (P31749 whole entry, the tested form may be a part): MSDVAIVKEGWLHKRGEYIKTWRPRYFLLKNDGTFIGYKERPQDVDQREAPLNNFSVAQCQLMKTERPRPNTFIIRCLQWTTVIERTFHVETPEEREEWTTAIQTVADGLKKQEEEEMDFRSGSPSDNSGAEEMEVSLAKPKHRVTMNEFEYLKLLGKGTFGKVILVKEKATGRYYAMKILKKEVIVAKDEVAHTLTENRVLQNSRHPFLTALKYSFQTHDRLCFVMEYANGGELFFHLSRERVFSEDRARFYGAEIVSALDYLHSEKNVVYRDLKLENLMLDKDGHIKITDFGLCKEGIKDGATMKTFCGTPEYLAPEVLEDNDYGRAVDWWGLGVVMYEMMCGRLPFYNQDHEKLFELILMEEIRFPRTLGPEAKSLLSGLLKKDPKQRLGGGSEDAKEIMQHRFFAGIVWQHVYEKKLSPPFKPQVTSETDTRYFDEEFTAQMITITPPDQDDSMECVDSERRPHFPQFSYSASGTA

Regarding `NC1CCN(c2ncnc3[nH]ccc23)CC1`, the inhibition in [1] stood at 8.5%; in assay [2], 0%.

On to `C[C@H](CN(C)C)Oc1nc(Nc2cc3cccc(Cl)c3cn2)cnc1C#N`, for which the inhibition in assay [3] was 11.5%.

For `Clc1ccc(C2(c3ccc(-c4ncnc5[nH]cnc45)cc3)CCNCC2)cc1`, the inhibition in [4] came to 51%.

Turning to `NC1(Cc2ccc(Cl)cc2)CCN(c2ncnc3[nH]ccc23)CC1`, in assay [5], the inhibition turned out to be 0%.

Take `NCC1CN(c2ncnc3[nH]c4cnccc4c23)CCO1` (configuration not stated): the inhibition came to 43.5% in assay [6] and 11% in [7].

In the case of `NCCc1ccc(-c2ncnc3[nH]cnc23)cc1`, the inhibition in [8] was determined as 5.5%.

Regarding `CNCc1ccc(-c2ncnc3[nH]cnc23)cc1`, the inhibition was determined as 43% in assay [9], 18.5% in assay [10] and 64.5% in assay [11].

In the case of `c1nc(N2CCOCC2)c2nc[nH]c2n1`, the inhibition in assay [12] stood at 64.5%.
